# Key:
# hM4D(Gi) DREADD = target: T1, hM4D(Gi) DREADD (Homo sapiens, UniProt P08173, A203G/Y113C); conditions: cited from earlier work
# T1 construct: HA (N); host or cells: primary afferent nociceptors of female C57BL/6 mice transduced in vivo (intraneural AAV6-hSyn-HA-hM4D(Gi)-IRES-mCitrine), as reported by Iyer et al. 2016
# T1 sequence (P08173 1-479 Y113C/A203G): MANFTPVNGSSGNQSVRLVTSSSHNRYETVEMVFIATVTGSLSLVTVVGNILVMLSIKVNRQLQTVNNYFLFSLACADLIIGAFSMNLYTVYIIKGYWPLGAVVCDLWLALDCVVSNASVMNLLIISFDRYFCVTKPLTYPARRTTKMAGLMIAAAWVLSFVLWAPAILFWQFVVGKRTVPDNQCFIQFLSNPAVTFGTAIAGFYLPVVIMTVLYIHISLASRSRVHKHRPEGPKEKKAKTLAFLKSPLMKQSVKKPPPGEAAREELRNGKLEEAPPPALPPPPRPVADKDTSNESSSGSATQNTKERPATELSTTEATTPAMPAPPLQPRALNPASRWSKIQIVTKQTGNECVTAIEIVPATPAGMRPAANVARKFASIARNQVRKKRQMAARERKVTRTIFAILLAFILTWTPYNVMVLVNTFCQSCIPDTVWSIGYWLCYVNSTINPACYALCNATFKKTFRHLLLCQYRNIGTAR
# [1] = target: T2, alpha 1 GlyR(F207A-A288G) (Homo sapiens, UniProt P23415, A316G/F235A); test: Thermal withdrawal latency assay (infrared laser on shaved cheek) after trigeminal ganglion AAV injection; assay type: in vivo, Sprague-Dawley rats
# T2 construct: expressed in transfected cells; host or cells: trigeminal ganglion neurons of adult Sprague-Dawley rats, transduced in vivo with AAV
# T2 sequence (P23415 29-457 F235A/A316G): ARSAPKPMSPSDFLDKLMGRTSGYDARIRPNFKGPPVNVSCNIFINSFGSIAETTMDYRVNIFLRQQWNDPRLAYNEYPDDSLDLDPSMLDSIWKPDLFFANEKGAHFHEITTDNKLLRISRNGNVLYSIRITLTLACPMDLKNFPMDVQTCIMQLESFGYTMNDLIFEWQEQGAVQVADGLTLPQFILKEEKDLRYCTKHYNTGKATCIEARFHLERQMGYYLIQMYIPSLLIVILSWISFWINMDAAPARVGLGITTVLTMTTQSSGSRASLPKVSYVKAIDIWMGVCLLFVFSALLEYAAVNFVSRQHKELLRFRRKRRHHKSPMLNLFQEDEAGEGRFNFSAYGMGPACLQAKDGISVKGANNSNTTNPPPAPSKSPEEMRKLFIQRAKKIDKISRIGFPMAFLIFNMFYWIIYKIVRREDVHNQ
# Protocol: On day 0, bilateral trigeminal ganglion injections of 10 microliters AAV vector containing the alpha 1 GlyR(F207A-A288G) transgene were performed in adult Sprague-Dawley rats. Two months following AAV injections, a single IP injection of ivermectin 10 mg/kg was administered to rats. The following day, rats were prepared for the thermal latency assay by shaving the fur off of their cheek, up to but not including the whisker pad. They were then placed in a 2.75 inch diameter×8 inch clear polycarbonate cylinder and allowed to acclimate to the environment. The rats naturally positioned themselves so their snout is just outside of the cylinder opening. Under video monitoring, the rats were then exposed to the beam of a 2W, infrared (808 nm) laser illumination focused to project a target size of approximately 1 mm×0.5 mm on the shaved cheek area. The rats then responded to the heat generated by the laser with an abrupt head position change (withdrawal reflex). The sequence was then repeated up to 10 trials on each side. The latency between the laser illumination onset and the head withdrawal reflex was measured from the video with video editing software allowing for frame by frame analysis.
# GLYR(F207A/A288G) = target: T3, GLYR(F207A/A288G) (Homo sapiens, UniProt P23415, A316G/F235A); test: Pain and anxiety behavioral assays in rodent models of chronic pain (CCI or SNI); assay type: in vivo; conditions: rodents with CCI or SNI, intraganglionic or intrathecal AAV6 GlyR(F207A/A288G) vector; 0.1-10.0 mg/kg per day
# T3 construct: expressed in transfected cells; host or cells: rodent dorsal root or trigeminal ganglion neurons transduced in vivo with AAV6 vectors
# T3 sequence (P23415 29-457 F235A/A316G): T2 sequence (P23415 29-457 F235A/A316G)
# Description: Day 0: Chronic pain is induced in rodent trigeminal ganglia or dorsal root ganglia using an established peripheral nerve injury method such as the chronic constriction injury (CCI, CO/CFA) or spared nerve injury (SNI) models. See Bennett & Xie. Pain. 1988, Decosterd & Woolf Pain. 2000, and Imamura, Kawamoto, & Nakanishi. Exp. Brain Res. 1997. In some instances, nerve injury may occur after viral vector injection.
# Day 7: Intraganglionic or intrathecal injection of 10^8-10^10 vector genomes of AAV6(Y705F+Y731F+T492V)-HSYN-GLYR(F207A/A288G)-FLAG or AAV6-GLY(HSYN-GLYR(F207A/A288G)-FLAG in a volume of approximately 1.0-10 μL is performed in one or multiple dorsal root ganglia or trigeminal ganglia using published methods. See Vit, Ohara, Sundberg et al. Mol Pain. 2009 and Towne, Fischer, Kostic, et al. J Neurosci Methods. 2011, and Pertin, et al. Mol Pain. 2009.
# Weeks 2-12 post CCI or SNI: Ivermectin is administered via oral gavage (P0), intraperitoneal injection (IP), subcutaneous injection (SC), or in drinking water for a final dose of 0.1-10.0 mg/kg per day. Pain and anxiety behavioral assays are performed to quantify level of analgesia using established nociception assay including operant assays, mechanical allodynia/hyperalgesia via Von Frey filaments, thermal allodynia/hyperalgesia via Hargreaves method, or anxiety behaviors via elevated plus maze. See review Odd-Geir Berge. […]
# [2] = target: T4, human α-1 GlyRM(F207A+A288G) (Homo sapiens, UniProt P23415, A316G/F235A); test: Mechanical withdrawal threshold (von Frey, up-down method) in spared nerve injury (SNI) model; assay type: in vivo, mice
# T4 construct: host or cells: mouse dorsal horn neurons transduced in vivo with the AAV vector
# T4 sequence (P23415 29-457 F235A/A316G): T2 sequence (P23415 29-457 F235A/A316G)
# Description: The expression cassette containing a human synapsin-1 (hSYN) promoter driving expression of the human α-1 GlyRM(F207A+A288G)-FLAG cDNA was constructed using standard molecular biology techniques (see also, FIG. 5 and SEQ ID NO:1 for description of the vector). This cassette was subcloned into a self-complementary AAV bacmid, purified, transfected into Sf9 insect cells to produce recombinant bacuvlovirus, and then amplified. Sf9 cells were double infected using the amplified recombinant baculovirus containing the hSYN-GlyRM cassette and another recombinant baculovirus containing the Rep and AAV6(Y705+731F+T492V) Cap genes to produce recombinant AAV vectors. These vectors were purified, viral titer was determined using qPCR (2.15e^13 vg/ml), and SDS-PAGE was used to verify the purity of AAV vectors (Virovek).
# A dorsal hemilaminectomy was made at the level of the lumbar enlargement to expose two segments (about 1.5-2 mm) of lumbar spinal cord, after which the dura mater was incised and reflected. The viral solution was loaded into a glass micropipette (prefilled with mineral oil). The micropipette was connected to a manual micro-injector mounted on a stereotactic apparatus. The viral solution was targeted to the dorsal horn (left side). Along the rostro-caudal axis within the exposed region, 6 injections of 240 nl each were performed, in an equidistant linear fashion. After each injection, 1 min of resting time was observed and then the muscle layer was sutured, the skin closed with staples, and the animals were allowed to recover with heated-pad before they were returned to their home cages. Animals were perfused for histological analysis after the last behavior test.
# To produce mechanical hypersensitivity in a model that mimics a neuropathic pain condition, the spared nerve injury (SNI) model, a validated model of mechanical allodynia was used (Shields et al., 2003, The Journal of Pain, 4, 465-470). This model was produced by the sectioning of the common peroneal and the sural nerves and isolating the tibial branch (see FIG. 7). Mechanical withdrawal threshold was assessed by placing mice on an elevated wire-mesh grid and stimulating the plantar surface of the hindpaw with von Frey filaments. The up-down method of Chaplan & Yaksh was used to determine mechanical thresholds before the spinal cord injection of the AAV-GlyRM. […] The hindpaw ipsilateral and contralateral to the vector injection was tested. […] Motor coordination was tested using an accelerating rotarod (Stoelting, USA) at a maximum speed of 33 rpm. The duration that the mouse spent on the rotarod was recorded, with a cut-off at 300 sec. Each mouse went through three training trials and was tested two hours later. Subsequently, all mice received a single IP injection of ivermectin (15 mg/kg or 10 mg/kg) and mechanical thresholds were again tested using the up-down method at 1, 2, 5, 7, and 13 days post SNI. […] The reversal lasted for at least 5 days. […] Animals were then perfused for histology.
Compound,"mechanical withdrawal thresholds (hM4D(Gi) DREADD; hM4D+ mice (AAV6-hSyn-HA-hM4D(Gi)-IRES-mCitrine intraneural), intraperitoneal administration)","Hargreaves thresholds (thermal sensation) (hM4D(Gi) DREADD; hM4D+ mice, after administration)","average thermal withdrawal latency ([1]; rats two months after bilateral trigeminal ganglion AAV injection, day after single IP 10 mg/kg, pre-treatment average 2.69 seconds)","hypoalgesic threshold shift in thermal pain sensitivity ([1]; rats, post versus pre IP 10 mg/kg)",improvement in pain related behaviors or anxiety over controls (GLYR(F207A/A288G)),"duration of analgesia in the SNI model ([2]; mice injected with SWB001, single IP injection of ivermectin (15 mg/kg) (FIG. 7))","mechanical hypersensitivity (mechanical thresholds, von Frey) ([2]; mice with AAV-GlyRM injected into dorsal horn, SNI, ipsilateral hindpaw, single IP injection 15 mg/kg)","mechanical thresholds after repeat dose ([2]; mice, SNI, AAV-GlyRM, 10 mg/kg IP on the 13th day, after thresholds had returned to post-injury baseline)","mechanical thresholds during follow-up after repeat dose ([2]; mice, SNI, AAV-GlyRM, followed for 48 hours after 10 mg/kg IP)","duration of the reversal of mechanical hypersensitivity ([2]; mice, SNI, AAV-GlyRM, single IP injection 15 mg/kg)","mechanical threshold on the contralateral side (absence of vector) ([2]; mice, contralateral hindpaw without vector, single IP injection 15 mg/kg)"
"C[N+]1([O-])CCN(C2=Nc3cc(Cl)ccc3Nc3ccccc32)CC1 [CNO, clozapine-N-oxide]",increased mechanical withdrawal thresholds,Strong inhibition of Hargreaves thresholds,–,–,–,–,–,–,–,–,–
ivermectin,–,–,5.19 s,92.9%,10%-500%,7 to 10 days,complete reversal of the mechanical hypersensitivity,recovery to non-injury baseline thresholds,thresholds remained at baseline,at least 5 days,no measurable effect

# From US20180193414A1, “COMPOSITIONS AND METHODS FOR TREATING NEUROLOGICAL DISORDERS” (Coda Biotherapeutics, Inc., priority 2015, published 2018)
